Measured values published in patent US7115632B1, “Sulfonyl aryl or heteroaryl hydroxamic acid compounds” (priority 1999, dated 2006).
Counter-ions that a name gives are not always drawn. Each block holds one compound with its values, some of them ahead of it.

Key:
Experiment in all cases: In vitro metalloprotease inhibition, fluorogenic MCA peptide substrate
Assay type in all cases: biochemical
[1] = target: T1, MMP-13 (Homo sapiens, UniProt P45452)
T1 construct: made in house; host or cells: insect cells, baculovirus expression

[2] = target: T2, MMP-2 (Homo sapiens, UniProt P08253)
T2 construct: made in house; provided by Dr. Gregory Goldberg, Washington University
T2 sequence (P08253 110-660): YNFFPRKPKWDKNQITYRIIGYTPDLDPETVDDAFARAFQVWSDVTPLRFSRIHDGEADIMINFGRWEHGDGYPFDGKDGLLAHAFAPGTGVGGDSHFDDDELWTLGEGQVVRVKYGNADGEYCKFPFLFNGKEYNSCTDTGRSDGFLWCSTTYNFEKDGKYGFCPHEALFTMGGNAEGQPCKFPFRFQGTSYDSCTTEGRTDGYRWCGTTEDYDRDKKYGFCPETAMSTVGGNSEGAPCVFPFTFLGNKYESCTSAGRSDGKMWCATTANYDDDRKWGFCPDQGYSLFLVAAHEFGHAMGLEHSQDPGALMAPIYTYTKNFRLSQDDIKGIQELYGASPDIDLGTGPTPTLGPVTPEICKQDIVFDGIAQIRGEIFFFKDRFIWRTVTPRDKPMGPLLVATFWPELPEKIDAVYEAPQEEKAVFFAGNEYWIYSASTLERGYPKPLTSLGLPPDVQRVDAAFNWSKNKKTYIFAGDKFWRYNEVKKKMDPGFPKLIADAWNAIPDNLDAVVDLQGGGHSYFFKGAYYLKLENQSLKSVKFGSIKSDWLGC

[3] = target: T3, MMP-1 (Homo sapiens, UniProt P03956)
T3 construct: made in house; host or cells: transfected HT-1080 cells (provided by Dr. Harold Welgus, Washington University)
T3 sequence (P03956 100-469): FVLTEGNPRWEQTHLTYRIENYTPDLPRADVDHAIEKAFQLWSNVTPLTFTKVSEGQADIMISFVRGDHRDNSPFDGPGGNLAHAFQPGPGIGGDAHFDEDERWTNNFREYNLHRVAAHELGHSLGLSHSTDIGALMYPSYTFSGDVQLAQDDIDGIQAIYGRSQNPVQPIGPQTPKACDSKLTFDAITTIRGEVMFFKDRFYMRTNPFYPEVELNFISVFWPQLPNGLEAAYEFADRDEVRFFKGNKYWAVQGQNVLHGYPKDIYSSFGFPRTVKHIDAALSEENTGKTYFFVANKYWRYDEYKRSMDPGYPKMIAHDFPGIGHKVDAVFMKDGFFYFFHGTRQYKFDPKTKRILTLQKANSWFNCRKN

Structure (SMILES): O=C(NO)c1ccccc1CS(=O)(=O)c1ccc(Oc2ccccc2)cc1 [Example 1, N-hydroxy-2-[[(4-phenoxyphenyl)sulfonyl]methyl]benzamide]
IC50 ([1]; Inhibition Table A): 45 nM
IC50 ([2]; Inhibition Table A): 10 nM

Structure (SMILES): O=C(Cc1ccccc1S(=O)(=O)c1ccc(Oc2ccccc2)cc1)NO [Example 2, N-hydroxy-2-[(4-phenoxyphenyl)sulfonyl]benzeneacetamide]
IC50 ([1]; Inhibition Table A): 2 nM
IC50 ([3]; Inhibition Table A): 900 nM
IC50 ([2]; Inhibition Table A): 0.3 nM

Structure (SMILES): O=C(NO)c1ccccc1NS(=O)(=O)c1ccc(Oc2ccccc2)cc1 [Example 5, N-hydroxy-2-[[(4-phenoxyphenyl)sulfonyl]amino]benzamide]
IC50 ([2]; Inhibition Table A): 3500 nM

Structure (SMILES): COc1ccc(S(=O)(=O)Cc2ccccc2C(=O)NO)cc1 [Example 6]
IC50 ([1]; Inhibition Table A): 4000 nM
IC50 ([3]; Inhibition Table A): > 10000 nM

Structure (SMILES): O=C(NO)c1ccccc1S(=O)(=O)N1CCC(c2ccccc2)CC1 [Example 9, N-Hydroxy-2-[[4-(phenyl)-1-piperidinyl]sulfonyl]benzamide]
IC50 ([1]; Inhibition Table A): 1500 nM
IC50 ([2]; Inhibition Table A): 45 nM

Structure (SMILES): CC(O)(C(=O)NO)c1ccccc1S(=O)(=O)N1CCC(c2ccccc2)CC1 (stereo not shown) [Example 10]
IC50 ([1]; Inhibition Table A): 520 nM
IC50 ([2]; Inhibition Table A): 70 nM

Structure (SMILES): O=C(NO)c1ccccc1S(=O)(=O)N1CCC(Oc2ccc(OC(F)(F)F)cc2)CC1 [Example 12, N-Hydroxy-2-[[4-[4-(trifluoromethoxy)phenoxy]-1-piperidinyl]sulfonyl]benzamide]
IC50 ([2]; Inhibition Table A): 2.2 nM

Structure (SMILES): O=C(NO)c1ccccc1S(=O)(=O)N1CCC(Oc2ccc(C(F)(F)F)cc2)CC1 [Example 13, N-hydroxy-2-[[4-[4-(trifluoromethyl)phenoxy]-1-piperidinyl]sulfonyl]benzamide]
IC50 ([1]; Inhibition Table A): 28.5 nM

Structure (SMILES): COc1ccc(S(=O)(=O)N2CCC(Oc3ccc(C(F)(F)F)cc3)CC2)c(C(=O)NO)c1OC [Example 16, N-Hydroxy-2,3-dimethoxy-6-[[4-[4-(trifluoromethyl)phenoxy]-1-piperidinyl)sulfonyl]benzamide]
IC50 ([1]; Inhibition Table A): 2.7 nM
IC50 ([2]; Inhibition Table A): 2.4 nM

Structure (SMILES): O=C(NO)c1c(F)cccc1S(=O)(=O)N1CCC(Oc2ccc(C(F)(F)F)cc2)CC1 [Example 19, 2-Fluoro-N-hydroxy-6-[[4-[4-(trifluoromethyl)phenoxy]-1-piperidinyl]sulfonyl]benzamide]
IC50 ([2]; Inhibition Table A): 5 nM

Structure (SMILES): O=C(NO)c1c(Cl)cccc1S(=O)(=O)N1CCC(Oc2ccc(C(F)(F)F)cc2)CC1 [Example 20, 2-Chloro-N-hydroxy-6-[[4-[4-(trifluoromethyl)phenoxy]-1-piperidinyl]sulfonyl]benzamide]
IC50 ([1]; Inhibition Table A): 14.8 nM
IC50 ([3]; Inhibition Table A): > 10000 nM
IC50 ([2]; Inhibition Table A): 1.8 nM

IC50 ([1]; Inhibition Table A): 63 nM
IC50 ([3]; Inhibition Table A): > 10000 nM
IC50 ([2]; Inhibition Table A): 5.9 nM
Structure (SMILES): O=C(NO)c1ccccc1S(=O)(=O)N1CCC(Oc2ccncc2)CC1 [Example 21, N-Hydroxy-2-[[4-(4-pyridinyloxy)-1-piperidinyl]sulfonyl]benzamide]

Structure (SMILES): COCCOc1cccc(S(=O)(=O)N2CCC(Oc3ccc(C(F)(F)F)cc3)CC2)c1C(=O)NO [Example 23, N-Hydroxy-2-(2-methoxyethoxy)-6-[[4-[4-(trifluoromethyl)phenoxy]-1-piperidinyl]sulfonyl]benzamide]
IC50 ([1]; Inhibition Table B): 4.3 nM
IC50 ([2]; Inhibition Table B): 1 nM

Structure (SMILES): COc1ccc(S(=O)(=O)N2CCC(Oc3ccc(-c4ccccc4)cc3)CC2)c(C(=O)NO)c1OC [Example 28]
IC50 ([1]; Inhibition Table B): 1.8 nM
IC50 ([3]; Inhibition Table B): > 10000 nM
IC50 ([2]; Inhibition Table B): 0.4 nM

Structure (SMILES): O=C(NO)c1ccccc1S(=O)(=O)N1CCC(n2c(=O)[nH]c3ccccc32)CC1 [Example 29, 2-[[4-(2,3-Dihydro-2-oxo-1H-benzimidazol-1-yl)-1-piperidinyl]sulfonyl]-N-hydroxybenzamide]
IC50 ([1]; Inhibition Table B): 2000 nM
IC50 ([3]; Inhibition Table B): > 10000 nM
IC50 ([2]; Inhibition Table B): 370 nM

IC50 ([1]; Inhibition Table B): > 10000 nM
IC50 ([3]; Inhibition Table B): > 10000 nM
IC50 ([2]; Inhibition Table B): > 10000 nM
Structure (SMILES): COC1CCN(S(=O)(=O)c2ccc3c(c2C(=O)NO)OCCO3)CC1 [Example 30, 2,3-Dihydro-N-hydroxy-6-[(4-methoxy-1-piperidinyl)sulfonyl]-1,4-benzodioxin-5-carboxamide]

Structure (SMILES): O=C(NO)c1c(S(=O)(=O)N2CCC(Oc3ccc(C(F)(F)F)cc3)CC2)ccc2c1OCCO2 [Example 31]
IC50 ([1]; Inhibition Table B): 7.7 nM
IC50 ([3]; Inhibition Table B): > 10000 nM
IC50 ([2]; Inhibition Table B): 1.4 nM

Structure (SMILES): O=C(NO)c1c(Cl)sc(Cl)c1S(=O)(=O)N1CCC(Oc2ccc(C(F)(F)F)cc2)CC1 [Example 32, 2,5-Dichloro-N-hydroxy-4-[[4-{4-(trifluoromethyl)phenoxy]-1-piperidinyl]sulfonyl]-3-thiophenecarboxamide]
IC50 ([1]; Inhibition Table B): 730 nM
IC50 ([3]; Inhibition Table B): > 10000 nM
IC50 ([2]; Inhibition Table B): 110 nM

Structure (SMILES): COc1ccccc1OC1CCN(S(=O)(=O)c2ccc(OC)c(OC)c2C(=O)NO)CC1 [Example 34, N-Hydroxy-2,3-dimethoxy-6-[[4-(2-methoxyphenoxy)-1-piperidinyl]sulfonyl]benzamide]
IC50 ([1]; Inhibition Table B): 2500 nM
IC50 ([3]; Inhibition Table B): > 10000 nM
IC50 ([2]; Inhibition Table B): 330 nM

Structure (SMILES): COc1ccc(OC)c(S(=O)(=O)N2CCC(Oc3ccc(C(F)(F)F)cc3)CC2)c1C(=O)NO [Example 35]
IC50 ([1]; Inhibition Table B): 110 nM
IC50 ([3]; Inhibition Table B): > 10000 nM
IC50 ([2]; Inhibition Table B): 21 nM

Structure (SMILES): O=C(NO)c1ccccc1S(=O)(=O)N1CCC(Oc2ccccn2)CC1 [Example 42, N-hydroxyl-2-[[4-(2-pyridinyloxy)-1-piperidinyl]sulfonyl]benzamide, monohydrochloride]
IC50 ([1]; Inhibition Table B): 1200 nM
IC50 ([2]; Inhibition Table B): 42 nM

Structure (SMILES): CCCCOC1CCN(S(=O)(=O)c2ccc3c(c2C(=O)NO)OCO3)CC1 [Example 43, 5-[(4-Butoxy-1-piperidinyl)sulfonyl]-N-hydroxy-1,3-benzodioxole-4-carboxamide]
IC50 ([1]; Inhibition Table B): 3700 nM
IC50 ([3]; Inhibition Table B): > 10000 nM
IC50 ([2]; Inhibition Table B): 200 nM

Structure (SMILES): CCCCCCCOC1CCN(S(=O)(=O)c2ccc3c(c2C(=O)NO)OCO3)CC1 [Example 44, 5-[(4-Heptyloxy-1-piperidinyl)sulfonyl]-N-hydroxy-1,3-benzodioxole-4-carboxamide]
IC50 ([1]; Inhibition Table B): 330 nM
IC50 ([3]; Inhibition Table B): > 10000 nM
IC50 ([2]; Inhibition Table B): 206 nM

Structure (SMILES): COc1ccc(S(=O)(=O)N2CCC(Oc3ccc(Cl)cc3)CC2)c(C(=O)NO)c1OC [Example 46, 6-[[4-(4-Chlorophenoxy)-1-piperidinyl]sulfonyl]-N-hydroxy-2,3-dimethoxybenzamide]
IC50 ([1]; Inhibition Table B): 1.5 nM
IC50 ([3]; Inhibition Table B): > 10000 nM
IC50 ([2]; Inhibition Table B): 0.3 nM

Structure (SMILES): COc1ccc(S(=O)(=O)N2CCC(Oc3ccccc3)CC2)c(C(=O)NO)c1OC [Example 47, N-Hydroxy-2,3-dimethoxy-6-[(4-phenoxy-1-piperidinyl)sulfonyl]benzamide]
IC50 ([1]; Inhibition Table B): 6.7 nM
IC50 ([3]; Inhibition Table B): > 10000 nM
IC50 ([2]; Inhibition Table B): 1.1 nM

Structure (SMILES): O=C(NO)c1c(OC2CCOCC2)cccc1S(=O)(=O)N1CCC(Oc2ccc(C(F)(F)F)cc2)CC1 [Example 48]
IC50 ([1]; Inhibition Table B): 2.2 nM
IC50 ([3]; Inhibition Table B): > 10000 nM
IC50 ([2]; Inhibition Table B): 1 nM

Structure (SMILES): O=C(NO)c1c(S(=O)(=O)N2CCC(Oc3ccc4c(c3)OCO4)CC2)ccc2c1OCO2 [Example 49, 5-[[4-((1,3-Benzodioxol]-5-yloxy)-1-piperidinyl]sulfonyl]-N-hydroxy-1,3-benzodioxole-4-carboxamide]
IC50 ([1]; Inhibition Table B): 19 nM
IC50 ([3]; Inhibition Table B): > 10000 nM
IC50 ([2]; Inhibition Table B): 1.1 nM

IC50 ([3]; Inhibition Table B): > 10000 nM
Structure (SMILES): O=C(NO)c1ccccc1S(=O)(=O)N1CCN(C(=O)c2ccccc2)CC1 [Example 51, 2-[(4-Benzoyl-1-piperazinyl)sulfonyl]-N-hydroxybenzamide]

Structure (SMILES): COc1ccc(S(=O)(=O)N2CCN(Cc3ccc(OC(F)(F)F)cc3)CC2)c(C(=O)NO)c1OC [Example 53, N-Hydroxy-2,3-dimethoxy-6-[[4-[[4-(trifluoromethoxy)phenyl]methyl]-1-piperazinyl]sulfonyl]benzamide, monohydrochloride]
IC50 ([1]; Inhibition Table B): 1900 nM
IC50 ([3]; Inhibition Table B): > 10000 nM
IC50 ([2]; Inhibition Table B): 240 nM

Structure (SMILES): CCCCOc1ccc(N2CCN(S(=O)(=O)c3ccc(OC)c(OC)c3C(=O)NO)CC2)cc1C [Example 56, 6-[[4-(4-Butoxy-3-methylphenyl)-1-piperazinyl]sulfonyl]-N-hydroxy-2,3-dimethoxybenzamide, monohydrochloride]
IC50 ([1]; Inhibition Table B): 20 nM
IC50 ([3]; Inhibition Table B): > 10000 nM
IC50 ([2]; Inhibition Table B): 9 nM

Structure (SMILES): COc1cccc(OC2CCN(S(=O)(=O)c3ccc(OC)c(OC)c3C(=O)NO)CC2)c1 [Example 57]
IC50 ([1]; Inhibition Table B): 250 nM
IC50 ([3]; Inhibition Table B): > 10000 nM
IC50 ([2]; Inhibition Table B): 12.1 nM
